Molecular target: T1, adenine nucleotide translocase 1 (ANT1) (Bos taurus, UniProt P02722)
T1 construct: gene SLC25A4; native ANT in isolated bovine heart mitochondria
T1 sequence (P02722 2-298): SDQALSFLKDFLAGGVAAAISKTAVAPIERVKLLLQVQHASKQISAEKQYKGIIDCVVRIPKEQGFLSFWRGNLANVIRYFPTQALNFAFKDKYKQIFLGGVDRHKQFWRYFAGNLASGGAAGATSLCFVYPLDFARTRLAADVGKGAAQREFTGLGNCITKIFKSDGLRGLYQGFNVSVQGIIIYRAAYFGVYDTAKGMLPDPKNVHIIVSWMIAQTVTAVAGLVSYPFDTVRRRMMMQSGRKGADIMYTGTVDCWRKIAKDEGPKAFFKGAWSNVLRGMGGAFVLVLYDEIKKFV
Assay: […]ADP uptake in isolated bovine heart mitochondria with […] atractyloside; import decreased to […]
Format: cell-based

C=C1[C@@H]2CC[C@H]3[C@]4(C)C[C@H](O[C@@H]5O[C@H](CO)[C@@H](OS(=O)(=O)O)[C@H](OS(=O)(=O)O)[C@H]5OC(=O)CC(C)C)C[C@@H](C(=O)O)[C@H]4CC[C@]3(C2)[C@H]1O [atractyloside]
remaining activity at 50 µM: 13.8 ± 1.1%

Reference: publication PMC4586513, “Mitochondrial ADP/ATP exchange inhibition: a novel off-target mechanism underlying ibipinabant-induced myotoxicity” (Scientific Reports, 2015)
